Measured values from patent US20060270727A1, “Small molecule therapeutics and uses therefor” (priority 2005, published 2006).
Like-named read-outs stand apart in the source and are kept apart here.

Experiments:
[1] = biological target: GAA·TTC duplex repeats in the frataxin gene; radiolabeled PCR product containing a (GAA)6 sequence; experiment: Quantitative DNase I footprinting on (GAA)6 DNA; type: binding
Description: Targeting GAA Repeat DNA with Polyamides. β-Alanine linked polyamides FA1-FA6 were synthesized (see Example 6) with sequence, theoretical DNA binding site, theoretical DNA binding site SEQ ID NO: ______) and binding affinity as shown in Table 1. […] Those of skill in the art will recognize that this value may be an underestimation of the affinity of this molecule for GAA repeat DNA since the KD measurements are limited by a minimum DNA concentration of ˜2 pM in the binding reaction. Radiolabeling of nucleic acid incorporated γ^32P ATP and polynucleotide kinase used standard procedures.
Polyamlde Synthesis and Characterization. Polyamides were synthesized by solid phase methods (Urbach & Dervan, Id.; Baird & Dervan, 1996, J. Am. Chem. Soc. 118:6141-6146) and their identity and purity verified by MALDI-TOF MS and analytical HPLC, using methods well known in the art. Fluorescent conjugates were prepared by coupling BODIPY (Molecular Probes) to the carboxyl-terminus (Best et al., 2003, Proc. Natl. Acad. Sci. U.S.A. 100:12063-12068). Binding affinities for match and mismatch sites were determined by quantitative DNase I footprinting (Trauger & Dervan, Id). A plasmid harboring six GAA repeats was constructed by cloning the oligonucleotide
in the pCR2.1 TOPO vector (Invitrogen, Calif.), and a 117 bp singly end-labeled PCR product was generated from this plasmid with the following oligonucleotides:
(§1) where the second oligonucleotide was labeled with γ-^32P ATP and polynucleotide kinase, using standard procedures, to generate a PCR product labeled on the GAA strand. A 204 bp singly end-labeled PCR product was derived from plasmid pMP142 DNA, containing 33 GAA repeats (Ohshima et al., Id.), with following oligonucleotides: […]

[2] = system: frataxin protein in GM15850 FRDA cells; experiment: Western blot of frataxin protein; type: cell-based, human; settings: 1-2 μM for 7 days, SDS-PAGE and western blot
Method: Since the primary transcripts from FRDA frataxin genes contain long stretches of GAA repeat RNA sequence, it is conceivable that this RNA will not be correctly processed into mature frataxin mRNA and frataxin protein will not be produced. To test whether polyamide FA 1 leads to increased levels of frataxin protein in treated lymphoid cells, total cell extracts from polyamide-treated (1-2 μM for 7 days) and untreated GM15851 control and GM15850 FRDA cells were subjected to SDS-PAGE, and the corresponding blots were probed with anti-frataxin or anti-actin antibodies. SDS-PAGE (i.e., sodium dodecylsulfate-polyacrylamide gel electrophoresis) was conducted by standard methods well known in the art.
Western Blot Analysis. Total cell extracts were used for SDS-PAGE and western blotting with antibodies to human frataxin (Chemicon) or actin (Santa Cruz Biotechnology) as a control for cell number and protein loading. Signals were detected by chemiluminescence after probing the blot with HRP-conjugated secondary antibody (Supersignal West, Pierce). To quantify the relative levels of proteins, autoradiograms (within the linear response range of X-ray film) were converted into digital images and the signals quantified using Molecular Dynamics ImageQuant software.

[3] = system: duplex DNA having GAA repeats ((GAA)33); experiment: Quantitative DNase I footprinting on extended GAA repeat DNA; type: binding
Description: The term “mismatch” in the context of polyamides or linkable units refers to replacement of one or more linkable units in a polyamide such that recognition for a specific duplex DNA pair is energetically less favorable (Dervan & Edelson, Id.; Urbach & Dervan, Id). The term “match” in the context of polyamide binding to DNA refers to a linkable unit selected according to the polyamide recognition rules of Urbach & Dervan (Id). or Dervan & Edelson (Id).
as §1

[4] = system: sticky DNA in plasmid pRW4886, two tracts of (GAA)176; experiment: Sticky DNA disruption, EcoNI digestion and agarose gel; type: biochemical; settings: 37° C., 1 hr
Method: Influence of Polyamides on Sticky DNA Conformation. Plasmid pRW4886, which contains two tracts of (GAA)176 (SEQ ID NO: ______) in a direct repeat orientation (Vetcher et al., 2002b, Id)., and forms sticky DNA, was treated with polyamides at concentrations of 0-50 μM at 37° C. for 1 hr. Restriction digestion with EcoNI following the polyamide incubation enabled visualization of the presence or absence of an EcoNI cleaved sticky DNA band that runs with decreased mobility compared to the linearized plasmid on 1% agarose gels. Quantitation was by densitometric analysis using Fluor Chem version 3.04 (Alpha Innotech Corp).
The capacity of sequence-specific polyamides to disrupt the intramolecular sticky DNA structure formed by GAA repeat tracts was investigated. Plasmids harboring the sticky DNA structure are visualized by gel electrophoresis after restriction endonuclease cleavage, by methods well known in the art. […] Plasmid pRW4886, which contains two tracts of (GAA)176 (SEQ ID NO: ______) in a direct repeat orientation (Vetcher et al., 2002b, Id.), was incubated with each of polyamides FA1, FA2, FA3 and FA4 at concentrations ranging from 0-50 μM. The polyamide-bound DNA was then digested with EcoNI and subjected to electrophoresis on 1% agarose gels to determine the amount of EcoNI cleaved sticky DNA retarded band present. Incubation of pRW4886 DNA with FA3 shifted the equilibrium from a maximum amount of sticky DNA to a complete loss of the EcoNI cleaved sticky DNA retarded band at a concentration of 50 nM. […] For FA1, a 1 μM concentration was needed to dissociate the DNA-DNA structure-forming region. […] Since sticky DNA inhibits transcription (Ohshima et al., Id.; Sakamoto et al., 2001, J. Biol. Chem. 276:27171-27177), and since the polyamides destabilize this conformation by shifting the structural equilibrium to duplex B-type DNA, it is highly likely that the increases in frataxin mRNA observed with polyamide FA1 are due to this structural transition.

[5] = system: mismatch DNA sequence 5′-GGAGGAGGTGGAGGAGGA-3′ from the erbB2 (Her2-neu) promoter; experiment: DNase I footprinting on mismatch DNA; type: binding, human; settings: polyamide concentrations up to 100 nM
Method: Two additional molecules, FA5 [(ImPyβ)4ImβDp] and FA6 [(ImPyβ)5ImβDp], were synthesized in order to target longer regions of GAA repeats in duplex DNA; i.e., (AAG)5 (SEQ ID NO: ______) and (AAG)6 (SEQ ID NO: ______) respectively. […] As another test for sequence specificity, footprinting experiments with FA1 and FA3 and a radiolabeled DNA fragment containing a mismatch DNA sequence 5′-GGAGGAGGTGGAGGAGGA-3′ (SEQ ID NO: ______) were performed.
The first oligonucleotide shown was radiolabeled as above to generate a PCR product labeled on the GAA strand. A 150 bp PCR product containing a (GGA•TCC)6 mismatch sequence was derived from the erbB2 (Her2-neu) promoter in human genomic DNA with the following oligonucleotides: […]

[6] = (GAA)6 DNA, values in text, read-out: apparent dissociation constant (KD)
[7] = quantitative DNase I footprinting, mean and standard deviation, minimum of two determinations, read-out: Binding affinity (KD)

| Structure (SMILES) | Kd [1, 6] [nM] | Kd [1, 7] [nM] | increase in frataxin protein [2] | concentration at 50% occupancy of the DNA ([3]; equals target site concentration in the reaction) [nM] | affinity for extended GAA repeats ([3]; several molecules bound per DNA molecule) | concentration needed to affect or dissociate sticky DNA [4] [µM] | binding to mismatch DNA sequence [5] | reduction of binding affinity vs match polyamide ([1]; mismatch vs match polyamide (FA2 vs FA1, FA4 vs FA3)) |
| --- | --- | --- | --- | --- | --- | --- | --- | --- |
| CN(C)CCCNC(=O)CCNC(=O)c1nc(NC(=O)CCNC(=O)c2cc(NC(=O)c3nc(NC(=O)CCNC(=O)c4cc(NC(=O)c5nccn5C)cn4C)cn3C)cn2C)cn1C [FA1, ImPyβImPyβImβDp] | 0.1 | 0.11 ± 0.02 | 2-3 fold | ~1.5 | no loss in affinity | 1 | Neither FA1 nor FA3 bound this DNA sequence | – |
| CN(C)CCCNC(=O)CCNC(=O)c1cc(NC(=O)CCNC(=O)c2nc(NC(=O)c3nc(NC(=O)CCNC(=O)c4cc(NC(=O)c5nccn5C)cn4C)cn3C)cn2C)cn1C [FA2, ImPyβImImβPyβDp] | > 100 | > 100 | – | – | – | > 100 | – | greater than three orders of magnitude |
